{"source": "paper PMC7265341", "about": "“Quantifying CDK inhibitor selectivity in live cells” (Nature Communications, 2020)", "key": {"[1]": {"target": "CDK16/Cyclin Y (Homo sapiens, UniProt Q00536)", "sequence (Q00536 whole entry)": "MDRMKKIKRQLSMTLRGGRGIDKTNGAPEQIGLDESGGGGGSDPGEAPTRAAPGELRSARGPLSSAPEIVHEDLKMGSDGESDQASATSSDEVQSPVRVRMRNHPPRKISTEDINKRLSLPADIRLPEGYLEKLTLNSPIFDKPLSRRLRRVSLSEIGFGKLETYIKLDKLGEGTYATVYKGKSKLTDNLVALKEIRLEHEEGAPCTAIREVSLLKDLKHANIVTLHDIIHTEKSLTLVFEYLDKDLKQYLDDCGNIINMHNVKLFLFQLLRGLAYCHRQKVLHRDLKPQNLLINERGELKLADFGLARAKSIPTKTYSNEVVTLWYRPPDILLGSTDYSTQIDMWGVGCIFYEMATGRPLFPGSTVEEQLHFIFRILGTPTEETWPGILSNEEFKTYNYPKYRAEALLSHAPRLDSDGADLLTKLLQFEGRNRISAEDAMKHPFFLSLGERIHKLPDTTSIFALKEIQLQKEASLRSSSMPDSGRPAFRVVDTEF", "sequence (Q8ND76 whole entry partner)": "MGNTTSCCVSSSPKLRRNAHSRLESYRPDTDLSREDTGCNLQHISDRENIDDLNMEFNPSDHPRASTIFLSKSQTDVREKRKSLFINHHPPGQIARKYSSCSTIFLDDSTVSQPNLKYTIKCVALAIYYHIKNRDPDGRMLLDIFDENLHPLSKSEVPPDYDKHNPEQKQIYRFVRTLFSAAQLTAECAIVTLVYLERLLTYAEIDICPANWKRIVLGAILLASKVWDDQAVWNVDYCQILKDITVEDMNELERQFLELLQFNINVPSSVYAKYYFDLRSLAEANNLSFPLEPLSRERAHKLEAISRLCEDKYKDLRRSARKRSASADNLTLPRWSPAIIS", "experiment": "NanoBRET live-cell target engagement, CDK16-NanoLuc/Cyclin Y in HEK-293", "format": "binding", "details": "read-out: Inhibition at 10µM (%), CDK16/Y"}, "[2]": {"target": "T1, CDK11A/Cyclin L2 (Homo sapiens, UniProt Q9UQ88)", "T1 sequence (Q9UQ88 1-783)": "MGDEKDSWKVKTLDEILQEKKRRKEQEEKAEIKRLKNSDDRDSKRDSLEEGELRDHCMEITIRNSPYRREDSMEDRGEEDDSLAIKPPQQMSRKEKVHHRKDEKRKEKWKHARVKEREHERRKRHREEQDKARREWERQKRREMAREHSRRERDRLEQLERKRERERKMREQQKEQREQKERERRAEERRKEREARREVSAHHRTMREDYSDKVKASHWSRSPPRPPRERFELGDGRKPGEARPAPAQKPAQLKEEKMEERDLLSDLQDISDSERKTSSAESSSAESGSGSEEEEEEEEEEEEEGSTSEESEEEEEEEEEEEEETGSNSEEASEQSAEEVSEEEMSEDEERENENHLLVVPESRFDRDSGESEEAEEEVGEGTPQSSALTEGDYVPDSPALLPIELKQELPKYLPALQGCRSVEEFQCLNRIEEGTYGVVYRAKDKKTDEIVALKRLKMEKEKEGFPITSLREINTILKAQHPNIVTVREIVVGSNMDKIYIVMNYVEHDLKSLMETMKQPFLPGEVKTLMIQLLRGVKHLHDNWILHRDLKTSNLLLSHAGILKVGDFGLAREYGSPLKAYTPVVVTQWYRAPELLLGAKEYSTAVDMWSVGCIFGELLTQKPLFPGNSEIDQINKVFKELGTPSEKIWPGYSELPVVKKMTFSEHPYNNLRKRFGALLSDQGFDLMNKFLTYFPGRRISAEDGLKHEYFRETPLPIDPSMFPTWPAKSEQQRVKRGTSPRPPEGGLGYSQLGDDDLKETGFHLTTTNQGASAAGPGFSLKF", "experiment": "NanoBRET live-cell target engagement, CDK11A-NanoLuc/Cyclin L2 in HEK-293", "format": "binding", "details": "read-out: Inhibition at 10µM (%), CDK11a/L2"}, "[3]": {"target": "CDK12/Cyclin K (Homo sapiens, UniProt Q9NYV4)", "experiment": "NanoBRET live-cell target engagement, CDK12-NanoLuc/Cyclin K in HEK-293", "format": "binding", "details": "read-out: Inhibition at 10µM (%), CDK12/K"}, "[4]": {"target": "CDK19/Cyclin C (Homo sapiens, UniProt Q9BWU1)", "sequence (Q9BWU1 whole entry)": "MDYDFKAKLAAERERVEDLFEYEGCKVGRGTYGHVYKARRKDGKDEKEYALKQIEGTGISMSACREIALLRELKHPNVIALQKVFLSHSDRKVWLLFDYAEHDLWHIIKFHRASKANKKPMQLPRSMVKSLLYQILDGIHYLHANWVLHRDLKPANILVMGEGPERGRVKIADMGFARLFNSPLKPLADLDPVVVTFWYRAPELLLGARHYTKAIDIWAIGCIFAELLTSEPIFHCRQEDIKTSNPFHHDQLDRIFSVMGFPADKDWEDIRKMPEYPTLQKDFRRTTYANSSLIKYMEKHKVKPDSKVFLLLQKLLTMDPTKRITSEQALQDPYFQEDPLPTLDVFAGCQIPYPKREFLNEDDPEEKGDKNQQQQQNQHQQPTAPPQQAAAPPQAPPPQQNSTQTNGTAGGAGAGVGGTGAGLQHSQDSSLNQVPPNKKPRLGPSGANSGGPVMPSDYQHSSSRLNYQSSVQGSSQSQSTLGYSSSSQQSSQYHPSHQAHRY", "sequence (P24863 whole entry partner)": "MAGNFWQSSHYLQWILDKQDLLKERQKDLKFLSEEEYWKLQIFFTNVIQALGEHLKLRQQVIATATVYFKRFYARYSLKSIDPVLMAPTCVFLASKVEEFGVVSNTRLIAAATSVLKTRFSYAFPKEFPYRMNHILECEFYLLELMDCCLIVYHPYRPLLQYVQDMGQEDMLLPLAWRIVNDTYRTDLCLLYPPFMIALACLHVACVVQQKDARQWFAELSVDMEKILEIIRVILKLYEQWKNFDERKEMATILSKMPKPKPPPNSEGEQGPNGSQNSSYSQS", "experiment": "NanoBRET live-cell target engagement, NanoLuc-CDK19/Cyclin C in HEK-293", "details": "for IC50: CDK19/C; for inhibition at 10 µM: read-out: Inhibition at 10µM (%), CDK19/C"}, "[5]": {"target": "CDK15/Cyclin Y (Homo sapiens, UniProt Q96Q40)", "sequence (Q96Q40 whole entry)": "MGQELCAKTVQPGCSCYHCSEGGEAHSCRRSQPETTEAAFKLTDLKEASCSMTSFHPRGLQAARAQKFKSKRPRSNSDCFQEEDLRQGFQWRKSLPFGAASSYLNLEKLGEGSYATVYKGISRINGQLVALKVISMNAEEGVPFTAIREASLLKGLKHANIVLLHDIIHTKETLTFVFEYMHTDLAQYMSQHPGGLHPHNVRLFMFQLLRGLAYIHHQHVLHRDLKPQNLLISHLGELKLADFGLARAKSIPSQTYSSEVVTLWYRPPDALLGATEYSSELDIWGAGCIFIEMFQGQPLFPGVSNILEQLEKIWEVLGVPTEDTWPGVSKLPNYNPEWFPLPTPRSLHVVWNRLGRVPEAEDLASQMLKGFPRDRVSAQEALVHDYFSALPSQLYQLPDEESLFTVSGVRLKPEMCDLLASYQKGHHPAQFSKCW", "sequence (Q8ND76 whole entry partner)": "as the sequence (Q8ND76 whole entry partner) above", "experiment": "NanoBRET live-cell target engagement, NanoLuc-CDK15/Cyclin Y in HEK-293", "format": "binding", "details": "read-out: Inhibition at 10µM (%), CDK15/Y"}, "[6]": {"target": "CDK17/Cyclin Y (Homo sapiens, UniProt Q00537)", "sequence (Q00537 whole entry)": "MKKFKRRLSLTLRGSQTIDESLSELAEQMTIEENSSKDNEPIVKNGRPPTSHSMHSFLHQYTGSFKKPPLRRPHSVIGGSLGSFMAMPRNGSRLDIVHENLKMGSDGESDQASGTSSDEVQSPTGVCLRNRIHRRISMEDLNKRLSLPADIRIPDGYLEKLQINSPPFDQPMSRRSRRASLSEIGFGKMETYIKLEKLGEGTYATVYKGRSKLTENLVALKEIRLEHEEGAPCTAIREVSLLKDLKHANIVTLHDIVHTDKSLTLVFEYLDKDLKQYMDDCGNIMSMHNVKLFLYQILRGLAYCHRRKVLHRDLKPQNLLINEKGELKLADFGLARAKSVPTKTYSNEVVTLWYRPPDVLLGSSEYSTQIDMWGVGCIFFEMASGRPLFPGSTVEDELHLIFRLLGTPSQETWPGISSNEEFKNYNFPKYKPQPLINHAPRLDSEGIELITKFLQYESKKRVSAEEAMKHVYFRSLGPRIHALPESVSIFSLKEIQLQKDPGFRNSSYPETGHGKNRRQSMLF", "sequence (Q8ND76 whole entry partner)": "as the sequence (Q8ND76 whole entry partner) above", "experiment": "NanoBRET live-cell target engagement, CDK17-NanoLuc/Cyclin Y in HEK-293", "format": "binding", "details": "read-out: Inhibition at 10µM (%), CDK17/Y"}, "[7]": {"target": "CDK20/Cyclin H (Homo sapiens, UniProt Q8IZL9)", "experiment": "NanoBRET live-cell target engagement, NanoLuc-CDK20/Cyclin H in HEK-293", "format": "binding", "details": "read-out: Inhibition at 10µM (%), CDK20/H"}, "[8]": {"target": "CDK10/Cyclin L2 (Homo sapiens, UniProt Q15131)", "sequence (Q15131 whole entry)": "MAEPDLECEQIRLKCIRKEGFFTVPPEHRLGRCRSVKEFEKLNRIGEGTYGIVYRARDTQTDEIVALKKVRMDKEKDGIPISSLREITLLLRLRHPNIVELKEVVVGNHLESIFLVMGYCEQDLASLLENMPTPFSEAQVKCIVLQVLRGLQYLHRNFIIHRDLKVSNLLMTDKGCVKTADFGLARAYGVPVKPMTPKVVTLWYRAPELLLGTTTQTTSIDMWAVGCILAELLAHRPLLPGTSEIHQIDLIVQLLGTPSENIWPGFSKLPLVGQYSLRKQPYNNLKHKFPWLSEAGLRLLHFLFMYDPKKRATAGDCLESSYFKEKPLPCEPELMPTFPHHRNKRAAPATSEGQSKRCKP", "experiment": "NanoBRET live-cell target engagement, CDK10-NanoLuc/Cyclin L2 in HEK-293", "details": "read-out: Inhibition at 10µM (%), CDK10/L2"}, "[9]": {"target": "CDK6/Cyclin D1 (Homo sapiens, UniProt Q00534)", "sequence (Q00534 whole entry)": "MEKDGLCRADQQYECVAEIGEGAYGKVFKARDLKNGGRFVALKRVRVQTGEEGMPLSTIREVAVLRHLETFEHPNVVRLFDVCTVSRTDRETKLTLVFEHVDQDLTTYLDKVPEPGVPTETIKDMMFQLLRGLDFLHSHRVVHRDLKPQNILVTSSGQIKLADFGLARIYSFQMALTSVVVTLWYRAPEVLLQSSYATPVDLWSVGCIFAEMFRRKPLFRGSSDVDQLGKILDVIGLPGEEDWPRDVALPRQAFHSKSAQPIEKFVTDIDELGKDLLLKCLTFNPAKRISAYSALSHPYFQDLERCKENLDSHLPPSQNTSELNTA", "sequence (P24385 whole entry partner)": "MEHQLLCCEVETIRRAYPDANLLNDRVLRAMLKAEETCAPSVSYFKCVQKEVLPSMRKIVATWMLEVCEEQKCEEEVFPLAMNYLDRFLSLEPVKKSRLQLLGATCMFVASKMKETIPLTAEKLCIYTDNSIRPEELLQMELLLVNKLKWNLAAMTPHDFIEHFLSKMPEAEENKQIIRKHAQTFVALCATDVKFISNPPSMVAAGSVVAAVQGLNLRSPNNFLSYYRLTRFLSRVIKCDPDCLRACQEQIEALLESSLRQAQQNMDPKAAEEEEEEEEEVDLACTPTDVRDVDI", "experiment": "NanoBRET live-cell target engagement, NanoLuc-CDK6/Cyclin D1 in HEK-293", "format": "binding", "details": "CDK6/D1, read-out: Inhibition at 10µM (%)"}, "[10]": {"target": "CDK4/Cyclin D1 (Homo sapiens, UniProt P11802)", "sequence (P11802 whole entry)": "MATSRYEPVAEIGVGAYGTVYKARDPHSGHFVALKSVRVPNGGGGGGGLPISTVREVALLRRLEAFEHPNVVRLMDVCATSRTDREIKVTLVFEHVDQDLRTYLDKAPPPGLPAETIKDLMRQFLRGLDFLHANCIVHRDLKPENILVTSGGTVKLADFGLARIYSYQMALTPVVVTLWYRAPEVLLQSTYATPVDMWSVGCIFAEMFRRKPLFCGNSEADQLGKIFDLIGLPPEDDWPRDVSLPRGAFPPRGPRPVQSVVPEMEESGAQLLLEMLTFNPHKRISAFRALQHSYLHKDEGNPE", "sequence (P24385 whole entry partner)": "as the sequence (P24385 whole entry partner) above", "experiment": "NanoBRET live-cell target engagement, NanoLuc-CDK4/Cyclin D1 in HEK-293", "format": "binding", "details": "CDK4/D1, read-out: Inhibition at 10µM (%)"}, "[11]": {"target": "CDK1/Cyclin E1 (Homo sapiens, UniProt P06493)", "sequence (P06493 whole entry)": "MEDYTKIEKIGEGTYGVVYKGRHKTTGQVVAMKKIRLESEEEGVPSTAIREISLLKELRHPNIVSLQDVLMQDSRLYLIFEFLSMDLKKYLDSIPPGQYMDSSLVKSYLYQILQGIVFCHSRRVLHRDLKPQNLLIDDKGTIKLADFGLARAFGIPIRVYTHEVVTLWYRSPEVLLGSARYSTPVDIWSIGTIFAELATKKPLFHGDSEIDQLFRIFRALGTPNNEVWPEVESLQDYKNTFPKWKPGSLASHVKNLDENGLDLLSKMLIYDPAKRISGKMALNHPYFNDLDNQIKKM", "sequence (P24864 whole entry partner)": "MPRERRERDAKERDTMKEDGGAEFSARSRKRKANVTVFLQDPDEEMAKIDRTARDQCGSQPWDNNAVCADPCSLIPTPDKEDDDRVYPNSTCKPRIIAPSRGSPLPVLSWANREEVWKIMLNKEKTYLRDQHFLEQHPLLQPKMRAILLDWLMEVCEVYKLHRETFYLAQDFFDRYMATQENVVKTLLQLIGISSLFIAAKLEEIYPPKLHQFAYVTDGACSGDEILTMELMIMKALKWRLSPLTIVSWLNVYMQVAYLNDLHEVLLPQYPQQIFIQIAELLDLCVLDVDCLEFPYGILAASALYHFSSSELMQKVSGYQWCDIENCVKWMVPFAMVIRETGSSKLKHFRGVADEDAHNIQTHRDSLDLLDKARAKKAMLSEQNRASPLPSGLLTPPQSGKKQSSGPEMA", "experiment": "NanoBRET live-cell target engagement, CDK1-NanoLuc/Cyclin E1 in HEK-293", "format": "binding", "details": "CDK1/E1, read-out: Inhibition at 10µM (%)"}, "[12]": {"target": "CDK14/Cyclin Y (Homo sapiens, UniProt O94921)", "experiment": "NanoBRET live-cell target engagement, CDK14-NanoLuc/Cyclin Y in HEK-293", "format": "binding", "details": "read-out: Inhibition at 10µM (%), CDK14/Y"}}, "note": "Read-outs that look alike come from different tables or passages of the source."}
{"smiles": "COC1CN(C(=O)c2ccc3c(N)ncc(-c4ccc(-c5cnn(C)c5)cc4)c3n2)C1", "note": "[CCT251545 analog]", "values": [{"measurement": "inhibition at 10 µM", "setting": "[1]; experiment 1", "value": 6.3, "unit": "%"}, {"measurement": "inhibition at 10 µM", "setting": "[1]; experiment 2", "value": 1.1, "unit": "%"}, {"measurement": "inhibition at 10 µM", "setting": "[2]; average", "value": 0.8, "unit": "%"}, {"measurement": "inhibition at 10 µM", "setting": "[2]; experiment 1", "value": -1, "unit": "%"}, {"measurement": "inhibition at 10 µM", "setting": "[2]; experiment 2", "value": 2.6, "unit": "%"}, {"measurement": "inhibition at 10 µM", "setting": "[3]; average", "value": 1.9, "unit": "%"}, {"measurement": "inhibition at 10 µM", "setting": "[3]; experiment 1", "value": 5.9, "unit": "%"}, {"measurement": "inhibition at 10 µM", "setting": "[3]; experiment 2", "value": -2.2, "unit": "%"}, {"measurement": "IC50", "setting": "[4]; IC50 (nM), experiment 1", "value": 9, "unit": "nM"}, {"measurement": "IC50", "setting": "[4]; IC50 (nM), experiment 2", "value": 3, "unit": "nM"}, {"measurement": "IC50", "setting": "[4]; IC50 (nM), experiment 3", "value": 17, "unit": "nM"}, {"measurement": "IC50", "setting": "[4]; IC50 for CDK/cyclin complexes, live HEK-293, 2 h, mean ± S.E.M. (n=3) or mean (n=2)", "value": 10, "unit": "nM"}, {"measurement": "CDK19 occupancy (%)", "setting": "[4]; LOG10([CCT251545 analog]) (LOG10(µM)) 0.045757", "value": 84.8277, "unit": "%"}, {"measurement": "CDK19 occupancy (%)", "setting": "[4]; LOG10([CCT251545 analog]) (LOG10(µM)) 0.522879", "value": 83.6158, "unit": "%"}, {"measurement": "CDK19 occupancy (%)", "setting": "[4]; LOG10([CCT251545 analog]) (LOG10(µM)) 1", "value": 72.7094, "unit": "%"}, {"measurement": "CDK19 occupancy (%)", "setting": "[4]; LOG10([CCT251545 analog]) (LOG10(µM)) -0.43136", "value": 89.9173, "unit": "%"}, {"measurement": "CDK19 occupancy (%)", "setting": "[4]; LOG10([CCT251545 analog]) (LOG10(µM)) -0.90849", "value": 87.736, "unit": "%"}, {"measurement": "CDK19 occupancy (%)", "setting": "[4]; LOG10([CCT251545 analog]) (LOG10(µM)) -1.38561", "value": 82.404, "unit": "%"}, {"measurement": "CDK19 occupancy (%)", "setting": "[4]; LOG10([CCT251545 analog]) (LOG10(µM)) -1.86273", "value": 73.4365, "unit": "%"}, {"measurement": "CDK19 occupancy (%)", "setting": "[4]; LOG10([CCT251545 analog]) (LOG10(µM)) -2.33985", "value": 46.7764, "unit": "%"}, {"measurement": "CDK19 occupancy (%)", "setting": "[4]; LOG10([CCT251545 analog]) (LOG10(µM)) -2.81697", "value": 31.7498, "unit": "%"}, {"measurement": "CDK19 occupancy (%)", "setting": "[4]; LOG10([CCT251545 analog]) (LOG10(µM)) -3.29409", "value": 15.7537, "unit": "%"}, {"measurement": "CDK19 occupancy (%)", "setting": "[4]; LOG10([CCT251545 analog]) (LOG10(µM)) -3.77121", "value": 2.424, "unit": "%"}, {"measurement": "inhibition at 10 µM", "setting": "[4]; average", "value": 92.3, "unit": "%"}, {"measurement": "inhibition at 10 µM", "setting": "[4]; experiment 1", "value": 93.4, "unit": "%"}, {"measurement": "inhibition at 10 µM", "setting": "[4]; experiment 2", "value": 91.3, "unit": "%"}, {"measurement": "inhibition at 10 µM", "setting": "[5]; average", "value": -9.7, "unit": "%"}, {"measurement": "inhibition at 10 µM", "setting": "[5]; experiment 1", "value": -3.1, "unit": "%"}, {"measurement": "inhibition at 10 µM", "setting": "[5]; experiment 2", "value": -16.3, "unit": "%"}, {"measurement": "inhibition at 10 µM", "setting": "[6]; average", "value": 11.3, "unit": "%"}, {"measurement": "inhibition at 10 µM", "setting": "[6]; experiment 1", "value": 8.9, "unit": "%"}, {"measurement": "inhibition at 10 µM", "setting": "[6]; experiment 2", "value": 13.7, "unit": "%"}, {"measurement": "inhibition at 10 µM", "setting": "[7]; experiment 1", "value": 12.7, "unit": "%"}, {"measurement": "inhibition at 10 µM", "setting": "[7]; experiment 2", "value": 4.1, "unit": "%"}, {"measurement": "inhibition at 10 µM", "setting": "[8]; average", "value": -11.6, "unit": "%"}, {"measurement": "inhibition at 10 µM", "setting": "[8]; experiment 1", "value": -2.4, "unit": "%"}, {"measurement": "inhibition at 10 µM", "setting": "[8]; experiment 2", "value": -20.8, "unit": "%"}, {"measurement": "inhibition at 10 µM", "setting": "[9]; average", "value": 17.9, "unit": "%"}, {"measurement": "inhibition at 10 µM", "setting": "[9]; experiment 1", "value": 15.1, "unit": "%"}, {"measurement": "inhibition at 10 µM", "setting": "[9]; experiment 2", "value": 20.8, "unit": "%"}, {"measurement": "inhibition at 10 µM", "setting": "[10]; average", "value": 12.4, "unit": "%"}, {"measurement": "inhibition at 10 µM", "setting": "[10]; experiment 1", "value": 11.6, "unit": "%"}, {"measurement": "inhibition at 10 µM", "setting": "[10]; experiment 2", "value": 13.1, "unit": "%"}, {"measurement": "inhibition at 10 µM", "setting": "[11]; average", "value": 16.7, "unit": "%"}, {"measurement": "inhibition at 10 µM", "setting": "[11]; experiment 1", "value": 19.7, "unit": "%"}, {"measurement": "inhibition at 10 µM", "setting": "[11]; experiment 2", "value": 13.7, "unit": "%"}, {"measurement": "inhibition at 10 µM", "setting": "[12]; average", "value": -6.1, "unit": "%"}, {"measurement": "inhibition at 10 µM", "setting": "[12]; experiment 1", "value": -1.1, "unit": "%"}]}
